Results on five molecules are retold here after ChEMBL document CHEMBL1158693, “Antiinsectan decaturin and oxalicine analogues from Penicillium thiersii” (2005).

What all share (assay type): functional
Design in all cases: scale not given: the % may be the effect or the level left

The test system of experiment [1] is Spodoptera frugiperda. Description: Antiinsecticidal activity against Spodoptera frugiperda assessed as reduction in growth rate at 80 ppm relative to control.
In experiment [2] the test system is Spodoptera frugiperda. Description: Antiinsecticidal activity against Spodoptera frugiperda assessed as reduction in growth rate at 100 ppm relative to control.
Experiment [3] has as its system Spodoptera frugiperda. In words: Antiinsecticidal activity against Spodoptera frugiperda assessed as reduction in growth rate at 360 ppm relative to control.

As for `CC1=CC[C@@H]2[C@]34CC[C@](O)(OC3)C(C)(C)[C@@H]4CC[C@@]2(C)[C@]12Cc1c(cc(-c3cccnc3)oc1=O)O2` [DECATURIN C], the Activity with Spodoptera frugiperda [1] turned out to be 28%.
In the case of `C=C(C)[C@]1(O)CC[C@]2(C)[C@H](CC=C(C)[C@]23Oc2cc(-c4cccnc4)oc(=O)c2[C@@H]3O)[C@@]12CCC(=O)OC2` [OXALICINE B], the Activity in the experiment with Spodoptera frugiperda [2] turned out to be 62%.
As for `C=C(C)[C@@H]1CC[C@]2(C)[C@H](CC=C(C)[C@]23Oc2cc(-c4cccnc4)oc(=O)c2[C@@H]3O)[C@@]12CCC(=O)OC2` [OXALICINE A], the Activity with Spodoptera frugiperda [3] is given as 98%.
As to `CC1=CC[C@@H]2[C@]34CC[C@](O)(OC3)C(C)(C)[C@@H]4CC[C@@]2(C)[C@@]12Oc1cc(-c3cccnc3)oc(=O)c1[C@@H]2O` [DECATURIN B], the Activity with Spodoptera frugiperda [2] was determined as 89%.
Turning to `CC1=CC[C@@H]2[C@@]3(C)CCC(=O)C(C)(C)[C@@H]3CC[C@@]2(C)[C@]12Cc1c(cc(-c3cccnc3)oc1=O)O2` [DECATURIN D], the Activity in the experiment with Spodoptera frugiperda [2] turned out to be 77%.
